Source: the supplement of paper PMC11061612

Experiments:
Test in all cases: combination Emax (second highest fraction inhibited in the dose matrix, 72 h); higher = more inhibition; extreme values may be limits of the assay
[1] = system: SK-LMS-1 (Other Solid Carcinomas)
In short: (§1)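 Cell lines in DMEM/F12 or RPMI with 10% FBS were plated in 1536-well plates, held 24 hours at 37°C, 5% CO2, then given two-drug dose matrices for 72 hours (DMSO typically 0.2%). Viability was read by CellTiter-Glo 2.0 luminescence and scaled as inhibition from 0 (vehicle wells) to 1 (blank wells). Combination Emax is the second-highest inhibition in the matrix; Bliss excess is observed combination effect minus expected EA + EB − EA·EB, EA and EB being single-agent effects.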

[2] = system: TYK-nu (Ovarian Carcinoma)
In short: as §1

[3] = system: PA-TU-8902 (Pancreatic Carcinoma)
In short: as §1

EW-22 (Ewing's Sarcoma) = system: EW-22 (Ewing's Sarcoma)
In short: as §1

[4] = system: SW48 (Colorectal Carcinoma)
In short: as §1

[5] = system: NOMO-1 (Acute Myeloid Leukemia)
In short: as §1

[6] = system: EFM-192A (Breast Carcinoma)
In short: as §1

[7] = system: GDM-1 (Acute Myeloid Leukemia)
In short: as §1

MCF7 (Breast Carcinoma) = system: MCF7 (Breast Carcinoma)
In short: as §1

H4 (Low Grade Glioma) = system: H4 (Low Grade Glioma)
In short: as §1

[8] = system: 647-V (Bladder Carcinoma)
In short: as §1

HuO9 (Osteosarcoma) = system: HuO9 (Osteosarcoma)
In short: as §1

[9] = system: NCI-H1688 (Small Cell Lung Carcinoma)
In short: as §1

[10] = system: WSU-DLCL2 (B-Cell Non-Hodgkin's Lymphoma)
In short: as §1

[11] = system: SNG-M (Endometrial Carcinoma)
In short: as §1

[12] = system: U-118-MG (Low Grade Glioma)
In short: as §1

[13] = system: JHH-6 (Hepatocellular Carcinoma)
In short: as §1

CS1 (Chondrosarcoma) = system: CS1 (Chondrosarcoma)
In short: as §1

A172 (Glioblastoma) = system: A172 (Glioblastoma)
In short: as §1

[14] = system: BICR78 (Oral Cavity Carcinoma)
In short: as §1

Structure (SMILES)	combination Emax [1]	combination Emax [2]	combination Emax [3]	combination Emax (EW-22 (Ewing's Sarcoma))	combination Emax [4]	combination Emax [5]	combination Emax [6]	combination Emax [7]	combination Emax (MCF7 (Breast Carcinoma))	combination Emax (H4 (Low Grade Glioma))	combination Emax [8]	combination Emax (HuO9 (Osteosarcoma))	combination Emax [9]	combination Emax [10]	combination Emax [11]	combination Emax [12]	combination Emax [13]	combination Emax (CS1 (Chondrosarcoma))	combination Emax (A172 (Glioblastoma))	combination Emax [14]
COc1nnc2ccc(N3CCC(c4ccc(OCCN5CCN(C)C(=O)[C@H]5C)cc4)CC3)nn12 [AZD5153] + C[C@@H]1COCCN1C2=NC(=NC(=C2)C3(CC3)[S@](=N)(=O)C)C4=C5C=CNC5=NC=C4 [AZD6738] (first compound max 1 µM, 7x7, partner max 10 µM)	0.61	0.803	0.392	0.927	0.752	1	0.524	0.943	0.747	0.796	0.789	0.938	0.633	1	0.901	0.611	0.705	0.661	0.739	0.636
Cc1c2c(nn1C)CSCc1cc(n(C)n1)CSc1cc(c3ccccc3c1)OCCCc1c(C(=O)O)n(C)c3c-2c(Cl)ccc13 [AZD5991] + CN(C)CCCOc1ccc(-c2ccc3ncc4c(c3c2)n(C2CCOCC2)c(=O)n4C)cn1 [AZD0156] (first compound max 1 µM, 7x7, partner max 1 µM)	0.205	0.397	0.192	0.512	0.216	0.863	0.587	0.549	0.612	0.448	0.878	1	0.276	1	0.209	0.27	0.188	0.235	0.228	0.219
Cc1nc(Nc2ncc(C(=O)Nc3c(C)cccc3Cl)s2)cc(N2CCN(CCO)CC2)n1 [Dasatinib] + CC(=O)Nc1cccc(-n2c(=O)n(C3CC3)c(=O)c3c(Nc4ccc(I)cc4F)n(C)c(=O)c(C)c32)c1 [Trametinib] (first compound max 2 µM, 7x7, partner max 1 µM)	0.645	0.71	0.589	0.0877	0.959	0.861	0.122	0.76	0.112	0.393	0.483	0.541	0.249	0.432	0.798	0.557	0.611	0.568	0.512	0.435
Cc1c2c(nn1C)CSCc1cc(n(C)n1)CSc1cc(c3ccccc3c1)OCCCc1c(C(=O)O)n(C)c3c-2c(Cl)ccc13 [AZD5991] + CC1(C)CCC(CN2CCN(c3ccc(C(=O)NS(=O)(=O)c4ccc(NCC5CCOCC5)c([N+](=O)[O-])c4)c(Oc4cnc5[nH]ccc5c4)c3)CC2)=C(c2ccc(Cl)cc2)C1 [Venetoclax] (first compound max 1 µM, 7x7, partner max 1 µM)	0.115	0.233	0.139	0.839	0.339	0.981	0.873	0.999	0.745	0.726	0.618	1	0.702	1	0.209	0.196	0.0668	0.16	0.268	0.18
C=CCn1c(=O)c2cnc(Nc3ccc(N4CCN(C)CC4)cc3)nc2n1-c1cccc(C(C)(C)O)n1 [AZD1775] + O=C(c1cc(Cc2n[nH]c(=O)c3ccccc23)ccc1F)N1CCN(C(=O)C2CC2)CC1 [Olaparib] (first compound max 1 µM, partner max 10 µM)	0.563	0.698	0.289	0.894	0.409	0.917	0.293	0.827	0.332	0.853	0.654	0.792	0.6	0.992	0.668	–	0.223	0.564	0.434	0.362
CN(CCO)CC[C@H](CSc1ccccc1)Nc1ccc(S(=O)(=O)NC(=O)c2ccc(N3CCC([C@@H](O)c4ccccc4-c4ccc(Cl)cc4)CC3)cc2)cc1S(=O)(=O)C(F)(F)F [AZD4320] + CCN(CCO)CCCOc1ccc2c(Nc3cc(CC(=O)Nc4cccc(F)c4)[nH]n3)ncnc2c1 [AZD2811] (first compound max 1 µM, 7x7, partner max 1 µM)	0.845	0.27	0.189	1	1	0.76	0.172	1	0.248	0.543	0.708	0.728	0.723	0.907	0.775	0.487	0.391	0.683	0.457	0.313
C[C@@H](c1ccc2nccn2c1)n1nnc2ncc(-c3cnn(C)c3)nc21 [Savolitinib] + CC1(C)CCC(CN2CCN(c3ccc(C(=O)NS(=O)(=O)c4ccc(NCC5CCOCC5)c([N+](=O)[O-])c4)c(Oc4cnc5[nH]ccc5c4)c3)CC2)=C(c2ccc(Cl)cc2)C1 [Venetoclax] (first compound max 1 µM, 7x7, partner max 1 µM)	0.223	0.168	0.168	0.173	0.177	0.395	0.174	0.515	0.129	0.218	0.0716	0.197	0.239	0.304	0.246	0.218	0.0411	0.343	0.145	0.201
CS(=O)(=O)CCNCc1ccc(-c2ccc3ncnc(Nc4ccc(OCc5cccc(F)c5)c(Cl)c4)c3c2)o1 [Lapatinib] + NC1(c2ccc(-c3nc4ccn5c(=O)[nH]nc5c4cc3-c3ccccc3)cc2)CCC1 [MK-2206] (first compound max 10 µM, 7x7, partner max 10 µM)	0.927	0.894	0.72	0.868	0.847	0.778	–	–	0.953	0.883	–	0.995	0.819	0.99	0.667	–	–	0.765	–	0.545
C=CCn1c(=O)c2cnc(Nc3ccc(N4CCN(C)CC4)cc3)nc2n1-c1cccc(C(C)(C)O)n1 [AZD1775] + C1CN(CCC1(C(=O)N[C@@H](CCO)C2=CC=C(C=C2)Cl)N)C3=NC=NC4=C3C=CN4 [Capivasertib] (first compound max 3 µM, partner max 3 µM)	0.635	0.695	0.527	0.786	–	0.964	0.494	0.824	0.706	0.942	0.948	0.902	0.687	1	0.83	0.577	0.508	0.63	0.623	0.441
CN(C)CCCOc1ccc(-c2ccc3ncc4c(c3c2)n(C2CCOCC2)c(=O)n4C)cn1 [AZD0156] + O=C(c1cc(Cc2n[nH]c(=O)c3ccccc23)ccc1F)N1CCN(C(=O)C2CC2)CC1 [Olaparib] (first compound max 3 µM, partner max 3 µM)	0.392	0.354	0.239	0.872	–	0.321	0.248	0.533	0.324	0.536	0.257	0.49	0.206	0.89	0.0957	0.304	0.141	0.296	0.323	0.129
Cc1nc(-c2cn3c(n2)-c2ccc(-c4cnn(C(C)(C)C(N)=O)c4)cc2OCC3)n(C(C)C)n1 [Taselisib] + O=C(Nc1ccc2[nH]nc(-c3ccncc3)c2c1)[C@@H]1CCN(CC(=O)N2CCN(c3ccc(-c4ncccn4)cc3)CC2)C1 [SCH772984] (first compound max 10 µM, 7x7, partner max 5 µM)	0.924	–	–	0.719	0.942	0.932	–	–	–	0.68	–	–	–	0.961	0.76	–	–	0.744	–	0.66
CCc1c2c(nc3ccc(O)cc13)-c1cc3c(c(=O)n1C2)COC(=O)[C@]3(O)CC [SN-38] + O=C(c1cc(Cc2n[nH]c(=O)c3ccccc23)ccc1F)N1CCN(C(=O)C2CC2)CC1 [Olaparib] (first compound max 0.3 µM, 7x7, partner max 10 µM)	0.889	0.766	0.428	0.947	0.799	0.968	–	–	0.654	0.938	–	0.996	0.534	1	0.62	–	0.42	0.846	0.842	0.786
CS(=O)(=O)CCNCc1ccc(-c2ccc3ncnc(Nc4ccc(OCc5cccc(F)c5)c(Cl)c4)c3c2)o1 [Lapatinib] + Cn1cnc2c(F)c(Nc3ccc(Br)cc3Cl)c(C(=O)NOCCO)cc21 [Selumetinib] (first compound max 10 µM, 7x7, partner max 10 µM)	0.402	–	–	0.242	0.802	0.661	–	–	–	0.27	–	–	–	0.472	0.43	–	–	0.554	–	0.547
